Assay results published in patent US20240050389A1, “TREATMENT OF IDIOPATHIC PULMONARY FIBROSIS” (priority 2020, published 2024).

Legend:
[1] = test system: primary human lung fibroblasts; test: Seahorse mitochondrial stress test (OCR) of human lung fibroblasts cultured with itaconate; assay type: cell-based; settings: IPF HLFs (increased vs healthy HLFs), 24 h incubation with itaconate
[2] = test system: primary human lung fibroblasts; test: JULI-Stage proliferation assay; assay type: cell-based; settings: 10 mM itaconate, over 72 h
Protocol: (§1) Primary human lung fibroblasts were seeded in 96-well plate for proliferation assay (5,000 per well) or 24-well plate for wound healing assay and serum-starved overnight prior to treatment with itaconate in complete DMEM for 48-72 hrs. For wound healing assays, a standardised scratch was applied in each well using a p10 pipette tip. Images were taken in JULI-Stage system (NanoEntek) at three to five positions per well every 30 minutes and proliferation rate or wound closure were calculated using JU LI-Stage software (NanoEntek).
(§2) Human lung fibroblasts were cultured in media alone or supplemented with itaconate and assessed after 24 h-72 h. […] To assess the ability of itaconate to limit fibrosis related functions of HLFs, proliferation and wound healing assays were carried out in the presence or absence of itaconate.

[3] = test system: primary human lung fibroblasts; test: JULI-Stage wound healing (scratch) assay; assay type: cell-based; settings: healthy HLFs, 10 mM itaconate, over a 48 h period
Protocol: as §1, §2

[4] = test system: healthy human primary lung fibroblasts; test: Real-time PCR gene expression in fibroblasts cultured with itaconate; assay type: cell-based; settings: healthy HLFs, 10 mM itaconate, 24 h
Description: (§3) Primary human lung fibroblasts were isolated from lung resections of patients undergoing lung cancer surgery or lung transplantation performed after informed consent as approved by an external Research Ethics Committee (REC 15/SC0101) according to the Royal Brompton Hospital protocol (Royal Brompton & Harefield NHS Foundation Trust, 2016) and cultured in complete Dulbecco's modified eagle medium (10% FBS, 100 U/ml penicillin/streptomycin) (Gibco, ThermoFisher) to passage four. Human bronchial epithelial cells (HBE) were obtained from bronchial brushings during the bronchoscopy after informed consent and approved by an external Research Ethics Committee for ILD subjects (Ref. Nos. 10/H0720/12 and 15/SC0101). HBEs were cultured in bronchia.1 e thelial growth (BEGM) medium (Lonza) to passage four. MACS enriched human AM were cultured in complete RPMI (10% FBS, 100U/ml penicillin/streptomycin, Gibco, ThermoFisher) for 24 hrs. Fibroblasts and AM were cultured with 10 mM itaconate in complete medium for 24hrs prior to cell lysis in RLT buffer (QIAGEN) containing 1% 2-Mercaptoethanol (Sigma Aldrich).

[5] = Tolerability of inhaled (oropharyngeal) itaconate in naïve mice; assay type: in vivo; settings: inhaled dose of 0.25 mg/kg
Protocol: FIG. 18: Exogenous itaconate is anti-fibrotic. (A-C) Total BAL count, percentage of eosinophils (B) and Percentage of neutrophils (C) of PBS or itaconate dosed mice (0.25-10 mg/kg, oropharyngeal), 24 h post administration (n=4 per group). Data presented as mean±S.D.; Significance was tested by ordinary one-way ANOVA with Sidak's multiple comparison test, **P<0.01.
In order to address whether inhaled itaconate is anti-fibrotic, it was first determined a dose of itaconate that would not provoke an inflammatory response in murine airways. […] We administered inhaled (OPN) itaconate or PBS twice a week for two weeks during the fibrotic phase (starting at day 10 post bleomycin) to WT mice (FIG. 7A); this dosing strategy is in accordance with the American Thoracic guidelines for preclinical assessment of potential therapies for IPF (Jenkins et al., 2017). Subsequently pathology, fibrosis and lung function at d21 post bleomycin were assessed.

[6] = test system: bleomycin induced pulmonary fibrosis; test: Therapeutic inhaled itaconate in bleomycin mouse model; assay type: in vivo; settings: 0.25 mg/kg oropharyngeal twice a week for two weeks from day 10 post bleomycin, WT mice
Protocol: Unless otherwise stated, all mice were between 8 and 12 weeks of age. Mice were housed in specific-pathogen-free conditions and given food and water ad libitum. All procedures were approved by the United Kingdom Home Office and conducted in strict accordance with the Animals (Scientific Procedures) Act 1986. […] All surgery was performed under ketamine and sodium pentobarbital anaesthesia and all efforts were made to minimize suffering. Mice were administered either 0.05U (1U/ml solution dissolved in PBS) of bleomycin sulphate (Sigma Aldrich) or 50 μl PBS via the oropharyngeal route at day 0 and culled after 7, 21 or 42 days. For therapeutic experiments mice were administered 0.25 mg/kg (1 mM solution dissolved in PBS, 50 μl) itaconic acid (Sigma Aldrich) or PBS via the oropharyngeal route twice a week, beginning 10 days after of bleomycin administration.
Lung function measurements were performed using the Flexivent system (Scireq, Montreal, Canada). After induction of anaesthesia with an i.p. injection of Pentobarbitone (50 mg/Kg, Sigma, UK) and i.m. injection of Ketamine (200 mg/Kg) (Fortdodge Animal Health Ltd, Southampton, UK), mice were tracheotomised and attached to the Flexivent ventilator via a blunt-ended 19-gauge needle. Mice were ventilated using the following settings; tidal volume of 7 ml/Kg body weight, 150 breaths/minute; positive end-expiratory pressure approximately 2 cm H2O. Standardisation of lung volume history was done by performing two deep inflations. Subsequently, measurements of dynamic resistance, dynamic elastance and dynamic compliance were determined using the snapshot-150 perturbation, a single frequency sinusoidal waveform. Resultant data was fitted using multiple linear regression to the single compartment model to determine the above parameters.
Paraffin-embedded sections (4 μm) of lungs (apical lobe) were stained with hematoxylin/eosin (H&E) and Sirius Red. For assessment of fibrosis, the semi-quantitative Ashcroft scoring system was used as previously described (Hubner et al., 2008, Biotechniques, 44(4): 507-11). All scoring and measurements were performed by 3-5 blinded independent observers.
Total RNA was reverse transcribed into cDNA using the High Capacity cDNA Reverse Transcription kit (Life Technologies), or GoScript reverse transcription system (Promega) for AMs, according to manufacturer's instructions. Real-time PCR was performed using fast-qPCR mastermix (Life technologies) on a Viia-7 instrument (Applied Biosciences) with Taqman primers for murine acod1, col-1α1, col3α1, col4α1, fn1, mmp2 or human acod1, cd163, fn1, IL-16, mmp1, mmp9 using actb (Life Technologies) as housekeeping gene.

AMs from IPF patients = test: Culture of AMs from IPF patients with itaconate; assay type: cell-based, human; settings: AMs from IPF patients cultured with itaconate
Description: as §3
1×10^7 BAL cells were stained with anti-CD206 (Biolegend) and Human TruStain FcX block (Biolegend) for 15 minutes at 4° C. in 0.5% FBS/2 mM EDTA in PBS prior to incubation with MACS anti-Cy7 microbeads (Miltenyi Biotec) for 15 minutes at 4° C. […]

## C=C(CC(=O)O)C(=O)O [itaconate, 2-methylidenebutanedioic acid]
[1]
  maximal respiration: ameliorated
  spare respiratory capacity: ameliorated
[2]; HLFs from IPF patients
  proliferative capacity: significantly reduced
[2]; HLFs from healthy donors
  proliferative capacity: significantly reduced
[3]
  ability to close a standardized wound: decreased
[4]
  gene expression of FN-1: downregulated
  gene expression of IL-1β: downregulated
[5]; repeated oropharyngeal administration, naïve mice (data not shown)
  tolerability (no inflammatory response in murine airways): well tolerated
[5]; single oropharyngeal administration, naïve mice
  tolerability (no inflammatory response in murine airways): well tolerated
[6]; d21
  Ashcroft score based on Sirius red staining: significantly ameliorated
  expression of Col4α1 (lung homogenate): significantly ameliorated
  expression of Fn1 (lung homogenate): significantly ameliorated
[6]; d21, FlexiVent
  lung airway compliance: significantly ameliorated
  lung airway elastance: significantly ameliorated
AMs from IPF patients
  pro-fibrotic and pro-inflammatory pathways: inhibits
